Assay results as given in patent US4761410A, “Cephem Compounds” (Fujisawa Pharmaceutical Co., Ltd., priority 1985, dated 1988).
≈ marks a conversion by molar mass, not a printed value.

Columns and labels:
Escherichia coli 29 = assay: In vitro antibacterial activity (MIC) by two-fold agar-plate dilution method, Escherichia coli 29; type: cell-based; conditions: heart infusion agar, 37° C., 20 hours, read-out: MIC (minimal inhibitory concentration)
Procedure: (§1) In vitro antibacterial activity was determined by the two-fold agar-plate dilution method as described below.
(§2) One loopful of an overnight culture of each test strain in Trypticase-soy broth (10^8 viable cells per ml) was streaked on heart infusion agar HI-agar) containing graded concentrations of representative test compound, and the minimal inhibitory concentration (MIC) was expressed in terms of μg/ml after incubation at 37° C. for 20 hours.

[1] = test system: Proteus vulgaris IAM 1025; assay: In vitro antibacterial activity (MIC) by two-fold agar-plate dilution method, Proteus vulgaris IAM 1025; type: cell-based; conditions: IAM1025, heart infusion agar, 37° C., 20 hours, read-out: MIC (minimal inhibitory concentration)
Procedure: as §1, §2

Row | MIC (Escherichia coli 29) | MIC [1] | SMILES
1 | ≤ 0.025 µg/mL | ≤ 0.025 µg/mL | Cc1ccc[n+](CC2=C(C(=O)[O-])N3C(=O)C(NC(=O)/C(=N\OC(F)F)c4csc(N)n4)C3SC2)c1 (stereo not drawn) [Test Compound (1), 7-[2-(2-Aminothiazol-4-yl)-2-difluoromethoxyiminoacetamido]-3-(3-methyl-1-pyridiniomethyl)-3-cephem-4-carboxylate]
2 | 0.2 µg/mL (≈ 0.355 µM) | 0.05 µg/mL (≈ 0.0887 µM) | Cc1nsc(SCC2=C(C(=O)O)N3C(=O)C(NC(=O)/C(=N\OC(F)F)c4csc(N)n4)C3SC2)n1 (stereo not drawn) [Test Compound (2), 7-[2-(2-Aminothiazol-4-yl)-2-difluoromethoxyiminoacetamido]-3-(3-methyl-1,2,4-thiadiazol-5-yl)thiomethyl-3-cephem-4-carboxylic acid]
3 | 0.1 µg/mL (≈ 0.182 µM) | ≤ 0.025 µg/mL | Nc1nc(/C(=N/OC(F)F)C(=O)NC2C(=O)N3C(C(=O)O)=C(CSc4ncns4)CSC23)cs1 (stereo not drawn) [Test Compound (3), 7-[2-(2-Aminothiazol-4-yl)-2-difluoromethoxyiminoacetamido]-3-(1,2,4-thiadiazol-5-yl)thiomethyl-3-cephem-4-carboxylic acid]
